In US6410792B1, “Amide derivatives and methods for using the same as selective neuropeptide Y receptor antagonists” (Bayer Corporation, priority 1997, dated 2002):
Structures can show the parent of a compound that is named as a salt. Where two headings read alike, the source gives them in different places.

Key:
Rat NPY5 receptor = biological target: T1, Rat NPY5 receptor (Rattus norvegicus, UniProt Q63634); test: Rat NPY5 receptor binding assay ([125I]PYY, membrane protein)
T1 sequence (Q63634 1-445): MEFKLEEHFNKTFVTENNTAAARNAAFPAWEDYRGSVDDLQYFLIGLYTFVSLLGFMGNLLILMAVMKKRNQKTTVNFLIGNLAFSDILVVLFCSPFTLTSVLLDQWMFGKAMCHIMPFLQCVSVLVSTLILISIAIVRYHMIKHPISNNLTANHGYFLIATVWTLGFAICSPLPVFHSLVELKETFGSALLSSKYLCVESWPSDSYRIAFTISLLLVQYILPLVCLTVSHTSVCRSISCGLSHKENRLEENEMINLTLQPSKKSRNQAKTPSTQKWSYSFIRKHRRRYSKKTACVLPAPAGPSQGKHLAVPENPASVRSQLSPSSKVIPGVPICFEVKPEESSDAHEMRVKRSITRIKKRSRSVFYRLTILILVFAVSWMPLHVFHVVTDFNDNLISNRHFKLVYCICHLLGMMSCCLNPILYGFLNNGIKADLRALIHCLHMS
Experimental: C. Human and Rat NPY5 Receptor Binding Assays
Binding assays are performed on GF/C Millipore 96well plates pretreated with 0.02% polyethylenimine. The binding buffer is 25 mM Tris, 120 mM NaCl, 5 mM KCl, 1.2 mM KH2PO4, 2.5 mM CaCl2, 1.2 mM MgSO4, 0.1% BSA and 0.5 mg/ml bacitracin, pH 7.4. Samples consist of membrane protein, 75-100 pM [125I]PYY (porcine, NEN-DuPont) and drug dilution. Nonspecific binding is defined by 1 μM PYY. After a 2 hour incubation at room temperature with constant mixing, the samples are aspirated on a vacuum manifold, and rinsed with ice-cold binding buffer. The amount of radioactivity in each well is quantitated with either gamma counting or liquid scintillation.

Human NPY5 receptor = biological target: T2, Human NPY5 receptor (Homo sapiens, UniProt Q15761); test: Human NPY5 receptor binding assay ([125I]PYY, membrane protein); conditions: read-out: hNPY5 IC50
T2 sequence (Q15761 1-445): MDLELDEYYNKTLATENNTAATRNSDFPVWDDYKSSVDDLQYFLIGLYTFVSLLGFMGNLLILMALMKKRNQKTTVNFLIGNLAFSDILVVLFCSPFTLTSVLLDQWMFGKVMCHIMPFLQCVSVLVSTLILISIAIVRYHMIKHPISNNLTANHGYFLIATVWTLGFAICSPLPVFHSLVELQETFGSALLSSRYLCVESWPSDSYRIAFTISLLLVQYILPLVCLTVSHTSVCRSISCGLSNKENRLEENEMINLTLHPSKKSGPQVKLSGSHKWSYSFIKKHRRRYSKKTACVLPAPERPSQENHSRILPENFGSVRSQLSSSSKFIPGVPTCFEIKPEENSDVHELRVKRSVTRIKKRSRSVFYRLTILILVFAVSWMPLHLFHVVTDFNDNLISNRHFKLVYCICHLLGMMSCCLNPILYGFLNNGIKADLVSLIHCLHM
Procedure, shortened: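 Membrane protein incubated 2 h at room temperature with 75-100 pM porcine [125I]PYY and compound in pH 7.4 Tris buffer with salts, 0.1% BSA and bacitracin. Nonspecific binding with 1 μM PYY. Filtration, then gamma or scintillation counting.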

[1] = [125I]PYY, read-out: rNPY5 IC50
[2] = [125I]PYY binding, read-out: rNPY5 IC50

Row | Compound | IC50 (Rat NPY5 receptor; [1]) | IC50 (Human NPY5 receptor; [125I]PYY) | IC50 (Rat NPY5 receptor; [2]) | IC50 (Human NPY5 receptor; [125I]PYY binding) | IC50 (Rat NPY5 receptor; rNPY5 IC50, [125I]PYY)
1 | O=C(CN1CCC(O)(Cc2ccccc2)CC1)Nc1ccc(-c2ccccc2)cc1 [Compound 315, 2-(4-Benzyl-4-hydroxy-piperidin-1-yl)-N-biphenyl-4-yl-acetamide; hydrochloride] | 2000 nM | 800 nM |  |  | 
2 | CC(C)(C)OC(=O)NC1CCN(CC(=O)Nc2ccc(C(=O)c3ccccc3)cc2)C1 (centres unmarked) [Compound 205, {1-[(4-Benzoyl-phenylcarbamoyl)-methyl]-pyrrolidin-3-yl}-carbamic acid tert-butyl ester] |  |  | 71 nM | 72 nM | 
3 | O=C(CNc1c(I)cc(C(=O)O)cc1I)Nc1ccc(C(=O)c2ccccc2)cc1 [Compound 171, 4-{[(4-Benzoyl-phenylcarbamoyl)-methyl]-amino)-3,5-diiodo-benzoic acid] |  |  | 1200 nM | 530 nM | 
4 | CN(C(=O)OC(C)(C)C)C1CCN(CC(=O)Nc2ccc(C(=O)c3ccccc3)cc2)C1 (centres unmarked) [Compound 225, {1-[(4-Benzoyl-phenylcarbamoyl)-methyl]-pyrrolidin-3-yl)-methyl-carbamic acid tert-butyl ester] |  |  | 190 nM | 320 nM | 
5 | O=C(CNCCCn1ccnc1)Nc1ccc(C(=O)c2ccccc2)cc1 [Compound 244, N-(4-Benzoyl-phenyl)-2-(3-imidazol-1-yl-propylamino)-acetamide] |  |  | 3000 nM | 670 nM | 
6 | CCN(CC)CCCC(C)NCC(=O)Nc1ccc(C(=O)c2ccccc2)cc1 (centres unmarked) [Compound 246, N-(4-Benzoyl-phenyl)-2-(4-diethylamino-1-methyl-butylamino)-acetamide] | 1700 nM | 1600 nM |  |  | 
7 | CC(C)(C)OC(=O)NC1CCN(CC(=O)Nc2ccc(C3CCCCC3)cc2)C1 (centres unmarked) [Compound 194, {1-[(4-Cyclohexyl-phenylcarbamoyl)-methyl]-pyrrolidin-3-yl}-carbamic acid tert-butyl ester] |  |  | 35 nM | 37 nM | 
8 | O=C(O)CC(NCC(=O)Nc1ccc(C(=O)c2ccccc2)cc1)C(F)(F)F (centres unmarked) [Compound 190, 3-{[(4-Benzoyl-phenylcarbamoyl)-methyl]-amino}-4,4,4-trifluoro-butyric acid] |  |  | 340 nM | 340 nM | 
9 | COC(CNCC(=O)Nc1ccc(C(=O)c2ccccc2)cc1)OC [Compound 5, N-(4-Benzoyl-phenyl)-2-(2,2-dimethoxy-ethylamino)-acetamide] |  |  | 300 nM | 300 nM | 
10 | O=C(CNc1c(I)cc(C(=O)O)cc1I)Nc1ccc(C2CCCCC2)cc1 [Compound 165, 4-{[(4-Cyclohexyl-phenylcarbamoyl)-methyl]-amino)-3,5-diiodo-benzoic acid anion] |  |  | 700 nM | 1100 nM | 
11 | CC(=CC#N)NCC(=O)Nc1ccc(C2CCCCC2)cc1 [Compound 237, 2-(2-Cyano-1-methyl-vinylamino)-N-(4-cyclohexyl-phenyl)-acetamide] |  |  | 1000 nM | 4400 nM | 
12 | CC(=O)OC1CC2CC1N(CC(=O)Nc1ccc(C(=O)c3ccccc3)cc1)C2 (centres unmarked) [Compound 231, Acetic acid 2-[(4-benzoyl-phenylcarbamoyl)-methyl]-2-aza-bicyclo[2.2.1]hept-6-yl ester] |  |  | 74 nM | 67 nM | 
13 | O=C(CNCC1CC1)Nc1ccc(C(=O)c2ccccc2)cc1 [Compound 184, N-(4-Benzoyl-phenyl)-2-(cyclopropylmethyl-amino)-acetamide] |  |  | 690 nM | 740 nM | 
14 | O=C(CNC(CO)CO)Nc1ccc(C2CCCCC2)cc1 [Compound 173, N-(4-Cyclohexyl-phenyl)-2-(2-hydroxy-1-hydroxymethyl-ethylamino)-acetamide] |  |  | 920 nM | 2000 nM | 
15 | CCC(=O)C1(c2ccccc2)CCN(CC(=O)Nc2ccc(-c3ccccc3)cc2)CC1 [Compound 317, N-Biphenyl-4-yl-2-(4-phenyl-4-propionyl-piperidin-1-yl)-acetamide: hydrochloride] |  | 10 nM |  |  | 11 nM
16 | O=C(CNCc1ccc(C(=O)O)cc1)Nc1ccc(C2CCCCC2)cc1 [Compound 212] |  |  | > 10000 nM | > 10000 nM | 
17 | O=C(CNC1CCC1)Nc1ccc(C(=O)c2ccccc2)cc1 [Compound 242, N-(4-Benzoyl-phenyl)-2-cyclobutylamino-acetamide] |  |  | 5000 nM | 4400 nM | 

Row | Compound | IC50 (Rat NPY5 receptor; [1]) | IC50 (Human NPY5 receptor; [125I]PYY) | IC50 (Rat NPY5 receptor; [2]) | IC50 (Human NPY5 receptor; [125I]PYY binding) | IC50 (Rat NPY5 receptor; rNPY5 IC50, [125I]PYY)
18 | CNC1CCN(CC(=O)Nc2ccc(C3CCCCC3)cc2)C1 (centres unmarked) [Compound 198, N-(4-Cyclohexyl-phenyl)-2-(3-methylamino-pyrrolidin-1-yl)-acetamide] |  |  | 1300 nM | 1000 nM | 
19 | O=C(O)CC(NCC(=O)Nc1ccc(C2CCCCC2)cc1)C(F)(F)F (centres unmarked) [Compound 180, 3-{[(4-Cyclohexyl-phenylcarbamoyl)-methyl]-amino}-4,4,4-trifluoro-butyric acid] |  |  | 120 nM | 170 nM | 
20 | O=C(CNCCO)Nc1ccc(C2CCCCC2)cc1 [Compound 176, N-(4-Cyclohexyl-phenyl)-2-(2-hydroxy-ethylamino)-acetamide] |  |  | > 10000 nM | > 10000 nM | 
21 | O=C1C=C(NCC(=O)Nc2ccc(C3CCCCC3)cc2)CCC1 [Compound 179, N-(4-Cyclohexyl-phenyl)-2-(3-oxo-cyclohex-1-enylamino)-acetamide] |  |  | > 10000 nM | > 10000 nM | 
22 | O=C(CNCC1CC1)Nc1ccc(C2CCCCC2)cc1 [Compound 174, N-(4-Cyclohexyl-phenyl)-2-(cyclopropylmethyl-amino)-acetamide] |  |  | 840 nM | 610 nM | 
23 | C#CC(C)(C)NCC(=O)Nc1ccc(C(=O)c2ccccc2)cc1 [Compound 223, N-(4-Benzoyl-phenyl)-2-(1,1-dimethyl-prop-2-ynylamino)-acetamide] |  |  | 1400 nM | 540 nM | 
24 | O=C(CNCc1ccco1)Nc1ccc(C2CCCCC2)cc1 [Compound 160, N-(4-Cyclohexyl-phenyl)-2-[(furan-2-ylmethyl)-amino]-acetamide] |  |  | 450 nM | 660 nM | 
25 | O=C(CN1CCC(CO)CC1)Nc1ccc(C2CCCCC2)cc1 [Compound 200, N-(4-Cyclohexyl-phenyl)-2-(4-hydroxymethyl-piperidin-1-yl)-acetamide] |  |  | 340 nM | 530 nM | 
26 | CC(C)(C)OC(=O)NC1CCN(CC(=O)Nc2ccc(C3CCCCC3)cc2)C1 (centres unmarked) [Compound 195, {1-[(4-Cyclohexyl-phenylcarbamoyl)-methyl]-pyrrolidin-3-yl}-carbamic acid tert-butyl ester] |  |  | 26 nM | 26 nM | 
27 | N-(4-Cyclohexyl-phenyl)-2-(3-ethylamino-pyrrolidin-1-yl)-acetamide [Compound 196] |  |  | 49 nM | 43 nM | 
28 | C=CCNCC(=O)Nc1ccc(C2CCCCC2)cc1 [Compound 235, 2-Allylamino-N-(4-cyclohexyl-phenyl)-acetamide] |  |  | 3800 nM | 1600 nM | 
29 | CCNC1CCN(CC(=O)Nc2ccc(C(=O)c3ccccc3)cc2)C1 (centres unmarked) [Compound 206, N-(4-Benzoyl-phenyl)-2-(3-ethylamino-pyrrolidin-1-yl)-acetamide] |  |  | 48 nM | 42 nM | 
30 | O=C(CN1CCC(NC(=O)C(F)(F)F)C1)Nc1ccc(C(=O)c2ccccc2)cc1 (centres unmarked) [Compound 207] |  |  | 50 nM | 48 nM | 
31 | COC(CNCC(=O)Nc1ccc(C2CCCCC2)cc1)OC [Compound 241, N-(4-Cyclohexyl-phenyl)-2-(2,2-dimethoxy-ethylamino)-acetamide] |  |  | 230 nM | 280 nM | 
32 | O=C(CNCc1ccc(C(=O)O)cc1)Nc1ccc(C(=O)c2ccccc2)cc1 [Compound 222, 4-({[(4-Benzoyl-phenylcarbamoyl)-methyl]-amino}-methyl)-benzoic acid] |  |  | > 10000 nM | > 10000 nM | 
33 | C#CC(C)(C)NCC(=O)Nc1ccc(C2CCCCC2)cc1 [Compound 213, N-(4-Cyclohexyl-phenyl)-2-(1,1-dimethyl-prop-2-ynylamino)-acetamide] |  |  | 360 nM | 360 nM | 
34 | CCNC1CCN(CC(=O)Nc2ccc(C3CCCCC3)cc2)C1 (centres unmarked) [Compound 199, N-(4-Cyclohexyl-phenyl)-2-(3-ethylamino-pyrrolidin-1-yl)-acetamide] |  |  | 2400 nM | 820 nM | 
